Laboratory results as given in US7291612B2, “Immunomodulatory compounds” (Active Biotech A.B., priority 2002, dated 2007).

Each molecule was assayed against T1, CD80-CD28 interaction (Homo sapiens, UniProt P33681) (assay: cell free Homogenous Time Resolved Fluorescence (HTRF) assay, inhibition of the CD80-CD28 interaction). Settings: 4 hours at room temperature, read-out: Activity (EC50 in summary form).
T1 construct: mouse Fab fragment (fusion partner)
T1 sequence (P33681 35-242 limits assumed): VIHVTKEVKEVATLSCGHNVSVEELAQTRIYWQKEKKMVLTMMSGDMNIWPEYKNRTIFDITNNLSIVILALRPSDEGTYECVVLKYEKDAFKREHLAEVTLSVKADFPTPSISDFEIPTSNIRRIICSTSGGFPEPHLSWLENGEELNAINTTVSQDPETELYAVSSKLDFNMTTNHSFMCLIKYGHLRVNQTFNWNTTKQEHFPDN
Type: binding

Row | SMILES | EC50
1 | O=C(Nc1ccc(-n2nc3c4cccc(F)c4[nH]cc-3c2=O)cc1)OC1CCN(Cc2ccccc2)CC1 [Example 155] | 1000 to 10000 nM
2 | CCCCCNC(=S)Nc1ccc(-n2nc3c4cccc(F)c4[nH]cc-3c2=O)cc1 [Example 156] | 1000 to 10000 nM
3 | CC(C)C(C)NC(=S)Nc1ccc(-n2nc3c4cccc(F)c4[nH]cc-3c2=O)cc1 (stereo not shown) [Example 157] | 1000 to 10000 nM
4 | O=c1c2c[nH]c3ccccc3c-2nn1-c1ccc(NC(=S)NC2CC2)cc1 [Example 160] | 1000 to 10000 nM
5 | CN(C)CCCNC(=O)c1ccc(-n2nc3c4ccccc4scc-3c2=O)cc1 [Example 165, N-[3-(dimethylamino)propyl]-4-(3-oxothiochromeno[4,3-c]pyrazol-2(3H)-yl)benzamide] | 1000 to 10000 nM
6 | O=C(NCCCNC1CCCCC1)c1ccc(-n2nc3c4ccccc4scc-3c2=O)cc1 [Example 166, N-[(cyclohexylamino)propyl]-4-(3-oxothiochromeno[4,3-c]pyrazol-2(3H)-yl)benzamide] | < 1000 nM
7 | O=C(NCCCCN1CCCC1)c1ccc(-n2nc3c4ccccc4scc-3c2=O)cc1 [Example 167, N-(pyrrolidin-1-yl-butyl)-4-(3-oxothiochromeno[4,3-c]pyrazol-2(3H)-yl)benzamide] | > 10000 nM
8 | CN1C(C)(C)CC(NC(=O)c2ccc(-n3nc4c5ccccc5scc-4c3=O)cc2)CC1(C)C [Example 168, 4-(3-oxothiochromeno[4,3-c]pyrazol-2(3H)-yl)-N-1,2,2,6,6-pentamethylpiperidin-4-ylbenzamide] | 1000 to 10000 nM
9 | CN(C)CCCNC(=O)c1ccc(-n2nc3c4cccc(F)c4scc-3c2=O)cc1 [Example 169, N-[3-(dimethylamino)propyl]-4-(6-fluoro-3-oxothiochromeno[4,3-c]pyrazol-2(3H)-yl)benzamide] | 1000 to 10000 nM
10 | O=C(NCCCNC1CCCCC1)c1ccc(-n2nc3c4cccc(F)c4scc-3c2=O)cc1 [Example 170, N-[(cyclohexylamino)propyl]-4-(6-fluoro-3-oxothiochromeno[4,3-c]pyrazol-2(3H)-yl)benzamide] | 1000 to 10000 nM
11 | O=C(NCCCCN1CCCC1)c1ccc(-n2nc3c4cccc(F)c4scc-3c2=O)cc1 [Example 171, N-(pyrrolidin-1-yl-butyl)-4-(6-fluoro-3-oxothiochromeno[4,3-c]pyrazol-2(3H)-yl)benzamide] | < 1000 nM
12 | CN1C(C)(C)CC(NC(=O)c2ccc(-n3nc4c5cccc(F)c5scc-4c3=O)cc2)CC1(C)C [Example 173, 4-(6-fluoro-3-oxothiochromeno[4,3-c]pyrazol-2(3H)-yl)-N-1,2,2,6,6-pentamethylpiperidin-4-ylbenzamide] | < 1000 nM

Continued, values first:

Row | EC50 | SMILES
13 | < 1000 nM | CN(C)CCCOC(=O)Nc1ccc(-n2nc3c4cccc(F)c4[nH]cc-3c2=O)cc1 [Example 154]
14 | < 1000 nM | CCN(CC)CCCCNC(=O)Nc1ccc(-n2nc3c4cccc(F)c4[nH]cc-3c2=O)cc1 [Example 158]
15 | < 1000 nM | CCCNC(=O)Nc1ccc(-n2nc3c4ccccc4[nH]cc-3c2=O)cc1 [Example 159]
16 | < 1000 nM | CN(C)CCCNC(=O)Nc1ccc(-n2nc3c4cccc(F)c4[nH]cc-3c2=O)cc1 [Example 161]
17 | < 1000 nM | COC(=O)[C@@H](NC(=O)Nc1ccc(-n2nc3c4ccccc4[nH]cc-3c2=O)cc1)C(C)C [Example 162]
18 | < 1000 nM | CN(C)CCCCNC(=O)Nc1ccc(-n2nc3c4cccc(F)c4[nH]cc-3c2=O)cc1 [Example 163]
19 | < 1000 nM | O=C(NCCCCN1CCCC1)Nc1ccc(-n2nc3c4cccc(F)c4[nH]cc-3c2=O)cc1 [Example 164]
